The values that follow come from PMC9490060, “Synthesis and evaluation of anticancer activity of quillaic acid derivatives: A cell cycle arrest and apoptosis inducer through NF-κB and MAPK pathways” (Frontiers in Chemistry, 2022).

The structures appear in SMILES notation.

Data set [1] concerns SW620 (human colorectal cancer cell line). Kind of data set: MTT anti-proliferative assay, SW620. In kind it is cell-based. The note with it: Homo sapiens, SW-620, 48 h incubation, means ± SD, n = 3. The text has this: (§1) The anti-proliferative activities against five human cancer cell lines, including HCT116 (human colorectal cancer cell line), MCF-7 (human breast cancer cell line), SW620 (human colorectal cancer cell line), BEL7402 (human hepatocellular carcinoma cell line), and HepG2 (human hepatocellular carcinoma cell line) were established for all the target compounds using the MTT assay.
(§2) The propidium iodide (PI) and Annexin V-FITC apoptosis detection kit were purchased from Invitrogen (Eugene, OR, United States). 3-(4,5-Dimethylthiazol-2-yl)-2,5-diphenyl-2H-tetrazolium bromide (MTT) was purchased from Sigma-Aldrich Co. (St. Louis, MO, United States). All human cell lines were used in this study, colorectal cancer cell HCT116, colorectal cancer cell SW620, breast cancer cell MCF-7, liver hepatocellular carcinoma cell BEL7402, liver hepatocellular carcinoma HepG2 and normal liver cell L02 were initially purchased from American Type Culture Collection (ATCC, Manassas, VA, United States). RPMI-1640 media, Dulbecco’s modified Eagle’s medium (DMEM), and foetal bovine serum (FBS) were provided from Gibco Company (Grand Island, NY, United States). Cell line MCF-7 and HepG2 were cultivated in DMEM containing 10% (v/v) heat-inactivated FBS, 100 units/ml penicillin and […] streptomycin (Grand Island, NY, United States). Cell lines HCT116, BEL7402, SW620, and L02 were cultivated in RPMI 1640 medium containing 10% (v/v) heat-inactivated FBS, 100 units/ml penicillin, and […] streptomycin. The cells were incubated at 37°C under a 5% CO2 and 90% relative humidity (RH) atmosphere.
(§3) Stock solutions were prepared by diluting target compounds in DMSO at concentrations (1.25, 2.5, 5, and 10 mM). The stock solution was then diluted (1.25, 2.5, 5, and 10 μM) with culture medium, and the concentration of DMSO was controlled not to exceed 0.1%.
(§4) Place the cells in a 96-well plate at an appropriate density to ensure exponential growth (1 × 10^4–1.2×10^4 cells per well) throughout the experiment, and then allow the cells to adhere for 24 h. The cells were then treated with continuous concentrations of each compound (1.25, 2.5, 5, and 10 μM) for 48 h. After 48 h of incubation, 15 μl of MTT solution was added to each well, and the final concentration was 2 mg/ml. Then incubate for another 4 h. After incubation, remove the MTT solution and add […] of DMSO to each well for staining. Shake vigorously for 10 min at room temperature to ensure complete dissolution. The optical density (OD) was read on a microplate reader (ELx 800, BioTek, Highland Park, Winooski, VT, United States) with a wavelength of 492 nm, and then the data was analyzed.

Data set [2] concerns HCT116 (human colorectal cancer cell line). Kind of data set: MTT anti-proliferative assay, HCT116. In kind it is cell-based. The note with it: Homo sapiens, HCT-116, 48 h incubation, means ± SD, n = 3.
Description: as §1, §2, §3, §4

Data set [3] deals with MCF-7 (human breast cancer cell line). Kind of data set: MTT anti-proliferative assay, MCF-7. In kind it is cell-based. The note with it: Homo sapiens, MCF7, 48 h incubation, means ± SD, n = 3.
Description: as §1, §2, §3, §4

Data set [4] concerns HepG2 (human hepatocellular carcinoma cell line). Kind of data set: MTT anti-proliferative assay, HepG2. In kind it is cell-based. The note with it: Homo sapiens, HepG2, 48 h incubation, means ± SD, n = 3.
Description: as §1, §2, §3, §4

For data set [5], the system named is BEL7402 (human hepatocellular carcinoma cell line). Kind of data set: MTT anti-proliferative assay, BEL7402. The data set is classed as cell-based. The note with it: Homo sapiens, Bel-7402, 48 h incubation, means ± SD, n = 3.
Description: as §1, §2, §3, §4

`Cc1ccc(-n2cc(COC(=O)[C@]34CCC(C)(C)C[C@H]3C3=CC[C@@H]5[C@@]6(C)CC[C@H](O)[C@@](C)(C=O)[C@@H]6CC[C@@]5(C)[C@]3(C)C[C@H]4O)nn2)cc1` [Compound A9, (1-(p-tolyl)-1H-1,2,3-triazol-4-yl)methyl (4aR,5R,6aS,6bR,8aR,9S,10S,12aR,12bR,14bS)-9-formyl-5,10-dihydroxy-2,2,6a,6b,9,12a-hexamethyl-1,3,4,5,6,6a,6b,7,8,8a,9,10,11,12,12a,12b,13,14b-octadecahydropicene-4a (2H)-carboxylate] registered a melting point of 204 to 206 °C. In data set [1], this compound displayed an IC50 above 10 µM. This compound returned a half-inhibitory concentration (IC50) in data set [2] above 10 µM. Besides, the half-maximal inhibitory concentration (IC50) in data set [3] was above 10 µM. In data set [4], the IC50 is above 10 µM. The compound also had an IC50 in data set [5] above 10 µM.

Compound `CC1(C)CC[C@]2(C(=O)OCc3cn(-c4ccc([N+](=O)[O-])cc4)nn3)[C@H](O)C[C@]3(C)C(=CC[C@@H]4[C@@]5(C)CC[C@H](O)[C@@](C)(C=O)[C@@H]5CC[C@]43C)[C@@H]2C1` [Compound A10, (1-(4-nitrophenyl)-1H-1,2,3-triazol-4-yl)methyl (4aR,5R,6aS,6bR,8aR,9S,10S,12aR,12bR,14bS)-9-formyl-5,10-dihydroxy-2,2,6a,6b,9,12a-hexamethyl-1,3,4,5,6,6a,6b,7,8,8a,9,10,11,12,12a,12b,13,14b-octadecahydropicene-4a (2H)-carboxylate] had a melting point of 193 to 194 °C. The compound also displayed an IC50 in data set [1] above 10 µM. Moreover, the concentration for half-maximal inhibition (IC50) in data set [2] is above 10 µM. The compound also had a concentration for half-maximal inhibition (IC50) in data set [3] above 10 µM. The IC50 in data set [4] is above 10 µM. The IC50 in data set [5] is above 10 µM.

`CC1(C)CC[C@]2(C(=O)OCCn3ncn(-c4ccccc4)c3=O)[C@H](O)C[C@]3(C)C(=CC[C@@H]4[C@@]5(C)CC[C@H](O)[C@@](C)(C=O)[C@@H]5CC[C@]43C)[C@@H]2C1` [Compound C1, 2-(5-oxo-4-phenyl-4,5-dihydro-1H-1,2,4-triazol-1-yl)ethyl (4aR,5R,6aS,6bR,8aR,9S,10S,12aR,12bR,14bS)-9-formyl-5,10-dihydroxy-2,2,6a,6b,9,12a-hexamethyl-1,3,4,5,6,6a,6b,7,8,8a,9,10,11,12,12a,12b,13,14b-octadecahydropicene-4a (2H)-carboxylate]: the melting point was 174 to 176 °C. Further, in data set [1], 6.12 ± 1.56 µM corresponded to half-maximal inhibition (IC50). Half-maximal inhibition in data set [2] (IC50) required 4.43 ± 1.34 µM. This compound showed a half-inhibitory concentration (IC50) in data set [3] above 10 µM. For the same compound, in data set [4], the IC50 was above 10 µM. The IC50 in data set [5] is above 10 µM.

The compound `COc1ccc(-n2cc(COC(=O)[C@]34CCC(C)(C)C[C@H]3C3=CC[C@@H]5[C@@]6(C)CC[C@H](O)[C@@](C)(C=O)[C@@H]6CC[C@@]5(C)[C@]3(C)C[C@H]4O)nn2)cc1` [Compound A6, (1-(4-methoxyphenyl)-1H-1,2,3-triazol-4-yl)methyl (4aR,5R,6aS,6bR,8aR,9S,10S,12aR,12bR,14bS)-9-formyl-5,10-dihydroxy-2,2,6a,6b,9,12a-hexamethyl-1,3,4,5,6,6a,6b,7,8,8a,9,10,11,12,12a,12b,13,14b-octadecahydropicene-4a (2H)-carboxylate] showed a melting point of 192 to 193 °C. In data set [1], this compound registered a half-inhibitory concentration (IC50) above 10 µM. The compound also had a 50% inhibitory concentration (IC50) in data set [2] above 10 µM. The compound further registered an IC50 in data set [3] above 10 µM. Besides, the half-maximal inhibitory concentration (IC50) in data set [4] is above 10 µM. The same compound came in with a half-inhibitory concentration (IC50) in data set [5] above 10 µM.

The compound `CC1(C)CC[C@]2(C(=O)OCCn3ncn(-c4ccc(F)cc4)c3=O)[C@H](O)C[C@]3(C)C(=CC[C@@H]4[C@@]5(C)CC[C@H](O)[C@@](C)(C=O)[C@@H]5CC[C@]43C)[C@@H]2C1` [Compound C2, 2-(4-(4-fluorophenyl)-5-oxo-4,5-dihydro-1H-1,2,4-triazol-1-yl)ethyl (4aR,5R,6aS,6bR,8aR,9S,10S,12aR,12bR,14bS)-9-formyl-5,10-dihydroxy-2,2,6a,6b,9,12a-hexamethyl-1,3,4,5,6,6a,6b,7,8,8a,9,10,11,12,12a,12b,13,14b-octadecahydropicene-4a (2H)-carboxylate] gave a melting point of 176 to 178 °C. This compound also showed an IC50 in data set [1] above 10 µM. This compound returned a 50% inhibitory concentration (IC50) in data set [2] above 10 µM. In data set [3], this compound returned an IC50 above 10 µM. Further, the IC50 in data set [4] is above 10 µM. The IC50 in data set [5] was above 10 µM.

Compound `CC1(C)CC[C@]2(C(=O)OCc3cn(-c4ccc(F)cc4)nn3)[C@H](O)C[C@]3(C)C(=CC[C@@H]4[C@@]5(C)CC[C@H](O)[C@@](C)(C=O)[C@@H]5CC[C@]43C)[C@@H]2C1` [Compound A2, (1-(4-fluorophenyl)-1H-1,2,3-triazol-4-yl)methyl (4aR,5R,6aS,6bR,8aR,9S,10S,12aR,12bR,14bS)-9-formyl-5,10-dihydroxy-2,2,6a,6b,9,12a-hexamethyl-1,3,4,5,6,6a,6b,7,8,8a,9,10,11,12,12a,12b,13,14b-octadecahydropicene-4a (2H)-carboxylate] returned a melting point of 171 to 172 °C. The compound further showed an IC50 in data set [1] of 8.78 ± 1.77 µM. The IC50 in data set [2] is 3.04 ± 0.92 µM. For the same compound, the half-inhibitory concentration (IC50) in data set [3] was above 10 µM. Besides, the 50% inhibitory concentration (IC50) in data set [4] is above 10 µM. Besides, the IC50 in data set [5] came to 3.18 ± 1.02 µM.

In the case of `CC1(C)CC[C@]2(C(=O)OCc3nnc(-c4ccccc4)o3)[C@H](O)C[C@]3(C)C(=CC[C@@H]4[C@@]5(C)CC[C@H](O)[C@@](C)(C=O)[C@@H]5CC[C@]43C)[C@@H]2C1` [Compound B1, (5-phenyl-1,3,4-oxadiazol-2-yl)methyl (4aR,5R,6aS,6bR,8aR,9S,10S,12aR,12bR,14bS)-9-formyl-5,10-dihydroxy-2,2,6a,6b,9,12a-hexamethyl-1,3,4,5,6,6a,6b,7,8,8a,9,10,11,12,12a,12b,13,14b-octadecahydropicene-4a (2H)-carboxylate], the melting point lay within 130 to 132 °C. This compound displayed a 50% inhibitory concentration (IC50) in data set [1] above 10 µM. In addition, the IC50 in data set [2] is above 10 µM. The compound also yielded an IC50 in data set [3] above 10 µM. In addition, the IC50 in data set [4] is above 10 µM. The same compound showed an IC50 in data set [5] above 10 µM.

As for `CC1(C)CC[C@]2(C(=O)OCCn3ncn(-c4ccc(Cl)cc4)c3=O)[C@H](O)C[C@]3(C)C(=CC[C@@H]4[C@@]5(C)CC[C@H](O)[C@@](C)(C=O)[C@@H]5CC[C@]43C)[C@@H]2C1` [Compound C3, 2-(4-(4-chlorophenyl)-5-oxo-4,5-dihydro-1H-1,2,4-triazol-1-yl)ethyl (4aR,5R,6aS,6bR,8aR,9S,10S,12aR,12bR,14bS)-9-formyl-5,10-dihydroxy-2,2,6a,6b,9,12a-hexamethyl-1,3,4,5,6,6a,6b,7,8,8a,9,10,11,12,12a,12b,13,14b-octadecahydropicene-4a (2H)-carboxylate], the melting point lay within 166 to 168 °C. In data set [1], this compound yielded an IC50 of 7.11 ± 1.54 µM. For the same compound, the half-maximal inhibitory concentration (IC50) in data set [2] turned out to be 3.11 ± 1.02 µM. In data set [3], this compound registered a half-maximal inhibitory concentration (IC50) above 10 µM. Also, the 50% inhibitory concentration (IC50) in data set [4] is above 10 µM. In data set [5], this compound showed an IC50 above 10 µM.

The compound `CC1(C)CC[C@]2(C(=O)OCc3nnc(-c4ccc([N+](=O)[O-])cc4)o3)[C@H](O)C[C@]3(C)C(=CC[C@@H]4[C@@]5(C)CC[C@H](O)[C@@](C)(C=O)[C@@H]5CC[C@]43C)[C@@H]2C1` [Compound B6, (5-(4-nitrophenyl)-1,3,4-oxadiazol-2-yl)methyl (4aR,5R,6aS,6bR,8aR,9S,10S,12aR,12bR,14bS)-9-formyl-5,10-dihydroxy-2,2,6a,6b,9,12a-hexamethyl-1,3,4,5,6,6a,6b,7,8,8a,9,10,11,12,12a,12b,13,14b-octadecahydropicene-4a (2H)-carboxylate] came in with a melting point of 140 to 142 °C. This compound showed a 50% inhibitory concentration (IC50) in data set [1] above 10 µM. In addition, in data set [2], the half-maximal inhibitory concentration (IC50) was found to be 3.65 ± 1.22 µM. The compound also displayed an IC50 in data set [3] above 10 µM. Also, in data set [4], the IC50 was above 10 µM. In addition, the IC50 in data set [5] was above 10 µM.
